The numbers were not newly measured in patent publication US20190254579A1, “INTEGRATED DEVICES TO CONTINUOUSLY MEASURE BOUND AND UNBOUND ANALYTE FRACTIONS IN BIOFLUIDS” (Eccrine Systems, Inc., priority 2015, published 2019), which cites them from elsewhere.

For series [1] the following is noted: water/octanol.

In brackets after ≈: the same amount, converted by molar mass. Where two headings read alike, the source gives them in different places.

For `CCCCCC[C@@H](O)C/C=C\CCCCCCCC(=O)O` [Ricinoleic Acid], the “Solubility in Water” value was 3460 µg/mL (≈ 11.6 mM). Besides, the logP (in general, a log measure of how a compound divides between an organic and an aqueous phase) in series [1] is 5.7.

Take `CCCCC/C=C\C/C=C\CCCCCCCC(=O)OC(CO)CO` [2-Linoleoyl Glycerol]: the logP in series [1] was 5.6.

Take `CCCCCCCC/C=C\CCCCCCCC(=O)O` [Oleic Acid]: in series [1], the logP is given as 7.64.

Regarding `CCCC/C=C\CCCCCCCC(=O)O` [Myristoleic Acid], the logP in series [1] was 5.1.

As to `CCCCC/C=C\C/C=C\C/C=C\C/C=C\CCCC(=O)O` [Arachidonic Acid], in series [1], the logP is given as 7. For the setting “stated in words”, the “Solubility in Water” value was “Negligible”.

Consider `CCCCCC/C=C\CCCCCCCC(=O)O` [Palmitoleic Acid], for which the logP in series [1] is 6.4. The “Solubility in Water” value (stated in words) was “Low”.

On to `CC(C)CCCC(C)CCCC(C)CCCC(C)CC(=O)O` (stereo not shown) [Phytanic Acid], for which the logP in series [1] is listed as 8.3.
